Data published in patent US20120252825A1, “BENEFICIAL EFFECTS OF COMBINATION THERAPY ON CHOLESTEROL” (Pfizer Inc., priority 2011, published 2012).
Where two headings read alike, the source gives them in different places.

Columns and labels:
triglycerides = details: FIG. 5
[1] = relative to Enrollment Visit
Source text: Table 2 presents the ACR20 (American College of Rheumatology 20% improvement in response rate) response rates (relative to Enrollment Visit, i.e., pre-TOFACITINIB treatment).

LDL-C = details: for Percent Change from Baseline in LDL, adjusted mean: TOFACITINIB 10 mg BID
HDL = details: FIG. 2
Apolipoprotein B = details: FIG. 4
Apolipoprotein A-1 = details: FIG. 3
total cholesterol = details: FIG. 6
[2] = following introduction of TOFACITINIB treatment
[3] = after Enrollment Visit (introduction of TOFACITINIB treatment)

C[C@@H]1CCN(C(=O)CC#N)C[C@@H]1N(C)c1ncnc2[nH]ccc12 [TOFACITINIB, 3-{(3R,4R)-4-Methyl-3-[methyl-(7H-pyrrolo-[2,3-d]pyrimidin-4-yl)-amino]-piperidin-1-yl}-3-oxo-propionitrile]
triglycerides level, trend (triglycerides; after Baseline Visit): increases continue | triglycerides level, trend (triglycerides; [2]): increase | ACR20 response rate, % of responders ([1]; Baseline (after 6 week treatment of TOFACITINIB 10 mg BID), atorvastatin group before add-on): 76.0% | ACR20 response, number of responders ([1]; Baseline (after 6 week treatment of TOFACITINIB 10 mg BID), atorvastatin group before add-on, N 50): 38 | ACR20 response rate, % of responders ([1]; Baseline (after 6 week treatment of TOFACITINIB 10 mg BID), placebo group before add-on): 76.6% | ACR20 response, number of responders ([1]; Baseline (after 6 week treatment of TOFACITINIB 10 mg BID), placebo group before add-on, N 47): 36 | ACR20 response rate, % of responders ([1]; Week 12, after 6 week treatment of atorvastatin or placebo added on to TOFACITINIB 10 mg BID): 65.2% | ACR20 response, number of responders ([1]; Week 12, after 6 week treatment of atorvastatin or placebo added on to TOFACITINIB 10 mg BID, N 46): 30 | Percent Change from Baseline in LDL, adjusted mean (LDL-C; Week 10): 5.5% | Percent Change from Baseline in LDL, adjusted mean (LDL-C; Week 12 (primary endpoint)): 5.8% | baseline LDL-C mean (LDL-C; after 6 weeks treatment with TOFACITINIB, placebo/TOFACITINIB treatment group, before placebo was added): 138.26 mg/dL | LDL level, trend (LDL-C; after Baseline Visit, FIG. 1): slightly increasing trend | median LDL-C level, trend (LDL-C; after Enrollment Visit (introduction of TOFACITINIB treatment), FIG. 1): increase | LDL-C mean (LDL-C; week 12, 6 weeks following randomization): 142.61 mg/dL | HDL level, trend (HDL; after Baseline Visit): slight upward trend | HDL level, trend (HDL; following the Enrollment Visit): increase | Apolipoprotein B level, trend (Apolipoprotein B; after Baseline Visit): slightly increasing trend | median Apolipoprotein B level, trend (Apolipoprotein B; [3]): increase | Apolipoprotein A-1 level, trend (Apolipoprotein A-1; after Baseline Visit): slightly trend upward | Apolipoprotein A-1 level, trend (Apolipoprotein A-1; [2]): increases | total cholesterol level, trend (total cholesterol; after Baseline Visit): slightly increasing trend | median total cholesterol level, trend (total cholesterol; [3]): increase
